Calls of active or inactive are those of the source. No cut-off for these calls is given here.

This is an account of results in ChEMBL document CHEMBL3046269, “The repelling effect of plant secondary metabolites on water voles, Arvicola amphibius” (2013).

For assay [1], the system named is Arvicola amphibius. The experiment in a line: Herbivore repellent activity against adult Arvicola amphibius assessed as time required to enter the test box with apple pieces for first time by T-maze test (reference value: 438.43 +/-312.37 secs). Type of assay: functional.
Assay [2] concerns Arvicola amphibius. The experiment in a line: Herbivore repellent activity against adult Arvicola amphibius assessed as duration of stay within test box with apple pieces by T-maze test (reference value: 59.20 +/-31.75%). It counts as functional.
Assay [3] concerns Arvicola amphibius. Nature of the assay: Herbivore repellent activity against adult Arvicola amphibius assessed as duration of stay within test box with apple pieces by T-maze test (reference value: 59.19 +/-19.83%). It counts as functional.
Assay [4] relates to Arvicola amphibius. The experiment in a line: Herbivore repellent activity against adult Arvicola amphibius assessed as time required to enter the test box with apple pieces for first time by T-maze test (reference value: 277.50 +/-166.07 secs). Type of assay: functional.
In assay [5] the test system is Arvicola amphibius. The experiment in a line: Herbivore repellent activity against adult Arvicola amphibius assessed as duration of stay within test box with apple pieces by T-maze test (reference value: 85.30 +/-13.79%). Type of assay: functional.
Assay [6] relates to Arvicola amphibius. Nature of the assay: Herbivore repellent activity against adult Arvicola amphibius assessed as time required to enter the test box with apple pieces for first time by T-maze test (reference value: 268.50 +/-417.85 secs). It counts as functional.
Assay [7] relates to Arvicola amphibius. Nature of the assay: Herbivore repellent activity against adult Arvicola amphibius assessed as decrease in frequency of entry of test box with apple pieces by T-maze test. It counts as functional, organism-based.
Assay [8] concerns Arvicola amphibius. The experiment in a line: Herbivore repellent activity against adult Arvicola amphibius assessed as duration of stay within test box with apple pieces by T-maze test (reference value: 56.72 +/-13.89%). Type of assay: functional.
Assay [9] has as its system Arvicola amphibius. Nature of the assay: Herbivore repellent activity against adult Arvicola amphibius assessed as time required to enter the test box with apple pieces for first time by T-maze test (reference value: 380.25 +/-321.70 secs). It counts as functional.
The test system of assay [10] is Arvicola amphibius. Nature of the assay: Herbivore repellent activity against adult Arvicola amphibius assessed as time required to enter the test box with apple pieces for first time by T-maze test (reference value: 240.75 +/-184.07 secs). It counts as functional.
For assay [11], the system named is Arvicola amphibius. Nature of the assay: Herbivore repellent activity against adult Arvicola amphibius assessed as duration of stay within test box with apple pieces by T-maze test (reference value: 75.53 +/-16.57%). Type of assay: functional.

Take `CCCS` [1-PROPANETHIOL]: the Time in the assay with Arvicola amphibius [1] is 996.29 s. Further, the Activity with Arvicola amphibius [2] is 40.8%.
For the compound `CC(C)=CCC/C(C)=C/CO` [GERANIOL], the Activity in the assay with Arvicola amphibius [3] came out at 40.8%. The Time in the assay with Arvicola amphibius [4] is listed as 326.38 s.
In the case of `CCCCCCCCCC(C)=O` [METHYL NONYL KETONE], the Activity in the assay on Arvicola amphibius [5] was 14.7%. Also, the Time in the assay on Arvicola amphibius [6] is listed as 888.38 s. Also, in the assay on Arvicola amphibius [7], the inhibition entry is “Active”.
In the case of `CCCCCCCCC(=O)O` [NONANOATE], in the assay on Arvicola amphibius [8], the Activity was determined as 43.28%. Besides, the Time in the assay on Arvicola amphibius [9] is reported as 507.75 s.
With `CCCCC(=O)O` [VALERIC ACID], the Time in the assay with Arvicola amphibius [10] was determined as 769.13 s. The Activity in the assay on Arvicola amphibius [11] is on record as 24.47%.
